“Also recorded” adds a separate entry of the source.
Tests used:
[1] = test system: lysine succinylation (Suc-Lys) PTMs; test: Western blotting of lysine succinylation in tissues of mice fed dicarboxylic acids; assay type: in vivo, wildtype C57Bl/6 mice; conditions: for lysine succinylation (Suc-Lys) PTMs in kidney / lysine succinylation (Suc-Lys) PTMs in liver: fed 10% w/w for 7 days
From the text: FIGS. 1A-1C. Feeding mice DCAs causes a dramatic shift in the post-translational modification (PTM) landscape. […] ND=normal diet. FIG. 1B) Mice were fed 10% DC12 for 0 to 7 days; some mice underwent a 7-day “washout” after 7 days on DC12.
FIG. 6. DC8 causes robust kidney specific succinylation. DC8, DC10 and DC12 were fed to wild-type mice at 10% w/w for 7 days.
(§1) We hypothesized that peroxisomes can chain-shorten DC12 as far as DC4-CoA, also known as succinyl-CoA. Such a mechanism would be predicted to 1) result in protein succinylation in the peroxisome, due to the known high chemical reactivity between lysine residues and succinyl-CoA; and 2) “feed” the mitochondrial TCA cycle with the products of DC12 chain-shortening, namely 2-carbon units (acetate) and succinate. We fed wildtype C57Bl/6 mice DC12 mixed into the diet and measured protein succinylation as a proxy for succinyl-CoA formation. […] The succinylation is seen to arise within 1 day and becomes maximal at 7 days (FIG. 1B). The effect is reversible when the diet is removed. DC12 degradation also produces acetyl-CoA. […] Like succinyl-CoA, glutaryl-CoA (DC5-CoA) is also highly reactive.
DC8 induces high-level, kidney-specific protein succinylation. […] Potential side effects caused by liver metabolization can be avoided, and the liver is not reducing the available agent.

[2] = test system: ischemic AKI; test: Unilateral ischemic kidney injury (ischemic AKI); assay type: in vivo, male mice; conditions: for BUN / kidney damage by H & E staining (dilated tubules, proteinaceous casts) / serum creatinine: diet-fed versus normal diet; for expression of the injury marker NGAL in proximal tubules: immunostaining
From the text: FIG. 3. DC12 treatment mitigates ischemic kidney injury. Normal diet or DC12-fed male mice were subjected to ischemic AKI. […] Tubular dilation (arrows), debris, or proteinaceous casts are indicated (*). […] E,F) DC12-fed mice had lower serum creatinine and BUN, which are markers of kidney dysfunction. *p<0.05.
FIGS. 7A-7F. […] Normal diet or DC8-fed male mice were subjected to ischemic AKI. […] Tubular dilation (arrows), debris, or proteinaceous casts are indicated (*). […] FIGS. 7E,7F) DC8-fed mice had lower serum creatinine and BUN, which are markers of kidney dysfunction. ****p<0.0001.
DC12 is renoprotective. […] To test this, mice that had been fed ±10% DC12 for 7 days were subjected to unilateral ischemic kidney injury. In this model, the uninjured contralateral kidney is removed on Day 6 post-injury and used as control tissue, and the injured kidneys are collected one day later for analysis. The diet was continued during the 6-day recovery period post-injury, as well as after removing the contralateral kidney.
(§2) The effect of DC8 in ischemic AKI was also tested.

[3] = test system: unilateral ureteral obstruction (UUO); test: Unilateral ureteral obstruction (UUO) model of interstitial fibrosis; assay type: in vivo; conditions: DC8 fed versus control fed diet
From the text: FIG. 14. DC8 treatment was also protective against a chronic kidney disease model of interstitial fibrosis. As was evidenced in the control fed diet 14A and A′ when the kidney was subjected to unilateral ureteral obstruction (UUO) that there was a significant amount of trichrome positive fibrosis in the interstitium (blue).

[4] = test system: long-chain acyl-CoA dehydrogenase (LCAD) knockout mice; test: LCAD knockout mice, model of mitochondrial long-chain fatty acid oxidation disorders; assay type: in vivo
From the text: FIG. 11A-11E. DC12 and DC10 improve functioning in long-chain acyl-CoA dehydrogenase (LCAD) knockout mice, a mouse model of mitochondrial long-chain fatty acid oxidation disorders.

[5] = test system: lysine glutarylation (Glu-Lys); test: Western blotting of lysine glutarylation in mice fed DC11; assay type: in vivo; conditions: 10% w/w for 7 days
[6] = test system: protein acetylation; test: Protein acetylation with pan anti-acetyllysine antibody in DC12-fed mice; assay type: in vivo
From the text: as §1

[7] = test system: lysine succinylation in liver peroxisomes; test: Lysine succinylation in liver peroxisomes and homogenates of WT versus Sirt5KO mice fed DC12; assay type: in vivo
From the text: FIGS. 2A-2C. […] FIG. 2A) Livers from N=3 mice fed DC12 for 7 days, separated by Histodenz gradient centrifugation to yield pure peroxisomes and blotted with anti-succinyllysine (SucLys). ND lanes=one control mouse of each genotype fed normal diet. Peroxisome fraction is positive for peroxisome marker PMP70 but negative for mitochondrial Tim23 except for WT sample #2 which had minor mitochondrial contamination. FIG. 2B) Densitometry from panel (FIG. 2A) showing total SucLys signal normalized to PMP70. FIG. 2C) Liver homogenates from normal diet (ND) and Sirt5KO mice (N=4) were subjected to quantitative site-level mass spectrometry for succinylated peptides. The Y-axis is Log 2 fold-change for each peptide relative to wild-type (WT) on ND. Each dot is an individual peptide.
An important question was whether Sirt5, a deacylase that can reverse succinylation and glutarylation, would offset and reverse the effects of feeding DCAs.

[8] = test system: lysine succinylation PTMs in kidney; test: Quantitative mass spectrometry of contralateral and injured kidneys (AKI ± DC12); assay type: in vivo, mice
From the text: FIGS. 4A-4C. Effects of injury and DC12 on protein succinylation PTMs. N=4 mice were subjected to AKI±7 days of 10% DC12. Contralateral (non-injured kidneys) served as control. Quantitative mass spectrometry was used to profile lysine succinylation PTMs at the protein and site-level. […] FIG. 4C) Succinylation of individual lysine-containing peptides from four key peroxisomal proteins, normalized to control diet non-injured levels.
Portions of contralateral control kidney and injured kidney were used for quantitative mass spectrometry, to measure both total protein abundance and site-level changes in lysine succinylation.

[9] = test system: cisplatin kidney injury; test: Nephrotoxic (cisplatin) model of AKI; assay type: in vivo, male 129 WT mice
Procedure: FIGS. 5A-5B. DC12 treatment mitigates cisplatin kidney injury. Normal diet or DC12-fed (7 days pre-treatment+3 days post-treatment) male 129 WT mice were injected i.p. with 18 mg/kg cisplatin and sacrificed at day 3. (FIG. 5A) Reduction of serum bicarbonate by cisplatin-AKI was mitigated in DC12 treated mice. (FIG. 5B) Renal tubular injury by cisplatin is mitigated in DC12 treated mice. Magnified images for dotted boxed areas are shown. Tubular dilation, debris, or proteinaceous casts are indicated(*) n=6-7, mean±SEM, t-test, *p<0.05, Scale bars: 50 um
We also conducted a nephrotoxic model of AKI (cisplatin).
as §2

[10] = Body weight, food intake, grip strength and body composition (EchoMRI) in DC12-fed mice; assay type: in vivo
Procedure: FIGS. 8A-8G. […] FIG. 8A, 8B) Mice were fed DC12 for 5 weeks. Body weight and food weights were measured 3 times per week. […] Forelimb peak force was measured with a grip strength meter and normalized to body weight.

[11] = Indirect calorimetry (CLAMS) in DC12-fed mice; assay type: in vivo
From the text: FIGS. 9A-9D. DC12 increases whole-body energy expenditure and respiratory exchange ratio. Indirect calorimetry indicated increased whole-body respiration as measured in the CLAMS apparatus over 72 hrs, for both oxygen consumed (FIG. 9A) and carbon dioxide produced (FIG. 9B). […] The calculated energy expenditure in the DC12 group was higher (FIG. 9D).

[12] = Treadmill run to exhaustion, blood lactate; assay type: in vivo, wildtype mice; conditions: DC12 diet for 7 days
Procedure: (§3) FIGS. 10A-10D. DC12 protects against lactic acidosis. Wildtype mice were maintained on DC12 diet for 7 days, then run on a treadmill to exhaustion. […] Then, mice fed DC12 were tested for protection against metformin overdose, which is clinically known to induce a lethal lactic acidosis. After a single 400 mg/kg dose of metformin, 9/11 mice on control diet died, while 0/12 mice on DC12 diet died (FIG. 10B).

[13] = test system: metformin overdose; test: Metformin overdose (lactic acidosis); assay type: in vivo, mice
Procedure: as §3

## O=C(O)CCCCCCC(=O)O [DC8, octanedioic acid]
[1]; western blotting
  lysine succinylation (Suc-Lys) PTMs in kidney: dramatic increase; also recorded: stronger protein succinylation
  lysine succinylation (Suc-Lys) PTMs in liver: not the liver
[2]; after ischemic injury
  kidney function: dramatically improved
[2]
  BUN: lower
  kidney damage by H & E staining (dilated tubules, proteinaceous casts): reduced kidney damage; also recorded: marked reduction in kidney damage
  serum creatinine: lower
  expression of the injury marker NGAL in proximal tubules: markedly reduced
[3]
  interstitial fibrosis (trichrome): dramatically decreased

## O=C(O)CCCCCCCCC(=O)O [DC10, decanedioic acid]
[1]; western blotting
  lysine succinylation (Suc-Lys) PTMs in kidney: large increase; also recorded: stronger protein succinylation
  lysine succinylation (Suc-Lys) PTMs in liver: moderate upregulation
[4]; single dose
  blood lactate after acute exercise stress test on a treadmill: significantly lowered

## O=C(O)CCCCCCCCCC(=O)O [DC11, undecanedioic acid]
[5]
  lysine glutarylation (Glu-Lys) in liver and kidney: massive increase; also recorded: high-level protein glutarylation

## O=C(O)CCCCCCCCCCC(=O)O [DC12, dodecanedioic acid]
[1]; 7-day washout after 7 days on DC12
  reversibility of succinylation: reversible
[1]; 10% DC12 for 0 to 7 days
  time at which succinylation becomes maximal: 7 days
  time for succinylation to arise: ≤ 1 days
[1]; DC12 mixed into the diet, western blotting
  succinylation in muscle, heart, and brain: no change
[1]; western blotting
  lysine succinylation (Suc-Lys) PTMs in kidney: massive increase; also recorded: moderate increase; also recorded: massive upregulation
  lysine succinylation (Suc-Lys) PTMs in liver: massive increase; also recorded: large increase; also recorded: massive upregulation; also recorded: strongest protein succinylation
[6]
  protein acetylation: no changes were observed
[7]; 10% DC12 for 7 days, anti-succinyllysine blot
  lysine succinylation in liver peroxisomes, WT versus Sirt5-/-: equal lysine succinylation
[7]; liver, quantitative mass spectrometry
  succinylated peptides, fold-change relative to WT on normal diet: very high fold-changes in succinylation in both genotypes; also recorded: increases lysine succinylation dramatically
[2]
  BUN: lower; also recorded: significantly reduced
  kidney damage by H & E staining (dilated tubules, proteinaceous casts): reduced kidney damage; also recorded: reduced the number of dilated tubules and proteinaceous casts
  serum creatinine: lower; also recorded: significantly reduced
  expression of the injury marker NGAL in proximal tubules: markedly reduced; also recorded: less induction
[8]; 7 days of 10% DC12, quantitative mass spectrometry
  lysine succinylation in kidney: massively increased; also recorded: massive effects
[8]; compared to baseline (contralateral)
  succinylation level of kidney peroxisomal proteins: greatly increased
[8]; total protein abundance, quantitative mass spectrometry
  protein expression in kidney: very minimal if any effect
[9]; 18 mg/kg cisplatin i.p., day 3
  reduction of serum bicarbonate by cisplatin-AKI: mitigated; also recorded: improved functionality
  renal tubular injury by cisplatin (histology): mitigated; also recorded: less structural damage
[9]; mouse, in vivo
  protection against injury in cisplatin model: protected against injury
[10]; 5 weeks or 9 weeks, EchoMRI
  fat mass: reduces fat mass
  lean mass: not altering lean mass
[10]; at sacrifice
  liver fat (triacylglycerol, TAG): also reduced
  mass of the intra-abdominal fat pad (epididymal): significantly reduced
[10]; fed DC12 for 5 weeks
  body weight: reduced body weight
  food intake: without changing food intake
[10]; grip strength meter
  muscle strength (forelimb peak force normalized to body weight): does not reduce muscle strength
[11]; CLAMS over 72 hrs
  whole-body respiration, carbon dioxide produced: increased
  whole-body respiration, oxygen consumed: increased
[11]; dark period
  respiratory exchange ratio (RER): shift toward a higher RER
[11]; mouse, in vivo
  calculated energy expenditure: higher
[12]
  blood lactate at exhaustion: significantly reduced
[13]; 2 hr post-metformin injection
  blood glucose levels relative to control: twice as high as control
  lactate levels, lower than control: 50%
[13]; single 400 mg/kg dose of metformin
  mice that died: 0/12
[4]; two weeks on 10% DC12 diet
  fasting glucose: improved
  forelimb grip strength: improved
  spontaneous locomotion: improved
  time spent resting: less

— patent US20240423941A1, “MEDIUM CHAIN DICARBOXYLIC ACIDS FOR THE TREATMENT AND PREVENTION OF DISEASES AND CONDITIONS” (University of Pittsburgh - Of the Commonwealth System of …, priority 2021, published 2024)
